Paper PMC9225722, “Synthesis and biological evaluation of thieno[3,2-c]pyrazol-3-amine derivatives as potent glycogen synthase kinase 3β inhibitors for Alzheimer’s disease” (Journal of Enzyme Inhibition and Medicinal Chemistry, 2022)
“Also recorded” adds a separate entry of the source.

How the values were obtained:
[1] = tested on: panel of 21 diverse kinases; experiment: Kinase selectivity screen, whole panel; assay type: biochemical, human; details: 1.0 μM compound, Km ATP, 21 kinases
Description: The potent GSK-3β inhibitor 16b was next subjected to kinase selectivity assay. A panel of kinases which were structurally related to GSK-3β was used for the GSK-3β selectivity studies[26]^,[37]^,[38]. […] GSK-3α and GSK-3β are known to share a 98% sequence homology at the catalytic site[42]. CDK5 and GSK-3 belong to the CMGC protein kinase family, which shared highly homology with each other[43]^,[44]. CDK5 is known abnormally activated and also responsible for the tau hyperphosphorylation in AD[45]. It was known that Aβ could increase CK2 activity, which in turn accelerated the tau phosphorylation in AD[46]. Therefore, the inhibition of CDK5 and CK2 by 16b may be beneficial for its anti-AD activities.
Figure 3. Effects of compound 16b on the activities of 21 protein kinases in vitro. Protein kinases were of human origin and assayed in the presence of 1.0 μM compound 16b or vehicle (DMSO). The enzymatic activity was measured in the presence of Km ATP. Kinase activities were given as the mean of twice determinations. […]
Compound 16b was evaluated for kinase selectivity at Eurofins Cerep SA (Celle-L’Evescault, France) in enzymatic radioactive assays in a panel of 21 different kinases (including GSK-3β) from diverse families. […] The enzymatic activity was measured in the presence of Km ATP.

[2] = tested on: tau phosphorylation at Ser396; experiment: Inhibition of Aβ-induced tau hyperphosphorylation (Western blot) in SH-SY5Y cells; assay type: cell-based, human; details: 20 μM Aβ25-35 stimulated (Aβ25-35 alone 0.83)
Protocol: GSK-3β phosphorylates tau at sites (Ser199, Ser396, and Ser443), and the hyperphosphorylated tau aggregate into NFTs in AD[63]. Inhibition of GSK-3β could reduce tau hyperphosphorylation. Therefore, the cell-based assay examining Aβ-induced tau phosphorylation at Ser396 represents a direct functional assay to measure the cellular activity of GSK-3β inhibitors. To investigate the effect of 16b on tau phosphorylation, Western blot analysis was carried out to check Aβ-induced tau protein hyperphosphorylation at Ser396 in SH-SY5Y cells, using LiCl as the control. […] At the concentration of 5 μM, 10 μM and 20 μM, 16b decreased the phosphorylation tau level to 0.70, 0.52, 0.40, respectively.
Figure 7. Inhibition of Aβ-induced tau phosphorylation by 16b in SH-SY5Y cells. Values are reported as the mean ± SD of three independent experiments. *p < 0.05, **p < 0.01, ***p < 0.001 vs control.
SH-SY5Y cells were seeded in 12-well plates until 80% confluence, serum-deprived for 12 h. Cells were pre-incubated with compound 16b or LiCl for 1 h, thereafter stimulated with Aβ25–35 (Sigma) for another 6 h. According to the previously reported method[64]^,[75], the phosphorylated tau was determined.

For `CC(C)C(=O)Nc1n[nH]c2cc(-c3cccnc3)sc12` [Compound 16b, N-(5-(pyridin-3-yl)-1H-thieno[3,2-c]pyrazol-3-yl)isobutyramide], the “kinase selectivity over most of the kinases of the panel” value [1] was “good selectivity; also recorded: accepted kinase selectivity”, the “p-tau/GAPDH ratio (Ser396)” value ([2]; 5 μM) was 0.70 and the “p-tau/GAPDH ratio (Ser396)” value ([2]; 10 μM) was 0.52. For the same compound, the “p-tau/GAPDH ratio (Ser396)” value ([2]; 20 μM) was 0.40.
